These results are taken from patent publication US20150119400A1, “METHODS FOR TREATING HCV” (priority 2013, published 2015).

One test has as its system HCV genotype 6a replicon. Briefly: HCV subgenomic stable replicon cell culture assay (luciferase), genotype 6a. Format: cell-based. The following applies: Hepatitis C virus; bound stated in description, plasma not stated; read-out: EC50 value against HCV genotype 6a. On the technique in general: In antiviral work, replicon cells carry a viral genome segment that copies itself.

The subject of test [1] is HCV stable subgenomic replicons containing NS3 genes from GT 1a, 1b, 2a, 3a, 4a, or 6a. The experiment in a line: HCV stable subgenomic replicon panel, summary statements over several genotypes. Format: cell-based. The conditions noted are these: Hepatitis C virus.
Test [2] relates to GT1a subgenomic replicon NS3 variants. Briefly: Resistant colony selection and variant susceptibility, GT1a subgenomic replicon cells. The conditions noted are these: A156T in GT1a. It is filed as cell-based, Hepatitis C virus. The text has this:
(§1) The inhibitory effects of the compounds of the invention on HCV replication can also be determined by measuring activity of the luciferase reporter gene encoded by subgenomic replicons not containing the Neo selectable marker, that are transiently expressed in cells. The adaptive mutations encoded by the 1a-H77, 1b-N and 1b-Con-1 replicons are the same as listed above. The 1b-Con1 replicon used for these transient assays contains the NS2-NS5B coding region rather than the NS3-5B coding region. These replicons may encode target NS3 genes as described for stable subgenomic replicons or they may encode amino acid variants that confer varying degrees of susceptibility to the drug. For example, variants could include R155K, D168E or D168V in a genotype 1a NS3 gene; R155K or D168V in a genotype 1b NS3 gene; S138T, A166T or Q168R in a genotype 3a NS3 gene. For example, cells can be transfected with the replicon by electroporation and seeded into 96 well plates at a density of 5000 cells per well in 100 μl DMEM containing 5% FBS. […] Luciferin solution (100 μl, Promega) can be added to each well, and luciferase activity can be measured with a luminometer. The percent inhibition of HCV RNA replication can be calculated for each compound concentration and the EC50 value can be calculated using nonlinear regression curve fitting to the 4-parameter logistic equation and GraphPad Prism 4 software. […]

For test [3], the system named is GT1b subgenomic replicon NS3 variants. The experiment in a line: Resistant colony selection and variant susceptibility, GT1b subgenomic replicon cells. Format: cell-based, Hepatitis C virus. The conditions noted are these: A156V in GT1b.
Excerpt: as §1

For test [4], the system named is replicon containing GT3a NS3 protease, variants. Briefly: Resistant colony selection and variant susceptibility, replicon containing GT3a NS3 protease. It is filed as cell-based, Hepatitis C virus. The text has this:
The inhibitory effects of the compounds of the invention on HCV replication can also be determined by measuring activity of the luciferase reporter gene encoded by subgenomic replicons not containing the Neo selectable marker, that are transiently expressed in cells. The adaptive mutations encoded by the 1a-H77, 1b-N and 1b-Con-1 replicons are the same as listed above. The 1b-Con1 replicon used for these transient assays contains the NS2-NS5B coding region rather than the NS3-5B coding region. These replicons may encode target NS3 genes as described for stable subgenomic replicons or they may encode amino acid variants that confer varying degrees of susceptibility to the drug. For example, variants could include R155K, D168E or D168V in a genotype 1a NS3 gene; R155K or D168V in a genotype 1b NS3 gene; S138T, A166T or Q168R in a genotype 3a NS3 gene. For example, cells can be transfected with the replicon by electroporation and seeded into 96 well plates at a density of 5000 cells per well in 100 μl DMEM containing 5% FBS. Compounds diluted in dimethyl sulfoxide (DMSO) to generate a 200× stock in a series of eight half-log dilutions can then be further diluted 100-fold in the medium containing 5% FBS and added to the cell culture plates already containing 100 μl of DMEM with 5% FBS. After an incubation period of either 3 or 4 days, 30 μl of Passive Lysis buffer (Promega) can be added to each well, with incubation for 15 minutes with rocking to lyse the cells. Luciferin solution (100 μl, Promega) can be added to each well, and luciferase activity can be measured with a luminometer. The percent inhibition of HCV RNA replication can be calculated for each compound concentration and the EC50 value can be calculated using nonlinear regression curve fitting to the 4-parameter logistic equation and GraphPad Prism 4 software.
Resistant colony selection studies in GT1a and 1b subgenomic replicon cells identified A156T in GT1a and A156V in GT1b as the most frequent variants, which conferred 1400- and 1800-fold reduced susceptibility to Compound 1, respectively. […]

Like-named read-outs stand apart in the source and are kept apart here. Where only a bound is given, the exact number is not on record here.

Take `CC(C)(C)[C@@H]1NC(=O)O[C@@H]2CCC[C@H]2OC/C=C/C(F)(F)c2nc3ccccc3nc2O[C@@H]2C[C@@H](C(=O)N[C@]3(C(=O)NS(=O)(=O)C4(C)CC4)C[C@H]3C(F)F)N(C2)C1=O` [Compound 1]: the EC50 (usually the concentration that produces a half-maximal response) in the test on HCV genotype 6a replicon was less than 1 nM; in test [1] (bound stated for all six genotypes, read-out: EC50 value against HCV genotype 1a, 1b, 2a, 3a, 4a, and 6a), less than 3 nM; in test [1] (genotype 1a and 1b, 0% Human Plasma, 5% FBS, read-out: mean EC50 values, range over genotype 1a and 1b replicons) it was 0.85 to 0.94 nM; in test [1] (genotype 1a and 1b, 40% Human Plasma, 5% FBS, read-out: mean EC50 values, range over genotype 1a and 1b replicons) it was 5 to 10 nM; in test [1] (genotype 2a, 3a, 4a, 6a, 0% Human Plasma, 5% FBS, read-out: mean EC50 values, range over genotype 2a, 3a, 4a, and 6a replicons), 0.86 to 2.8 nM. Besides, the “fold reduced susceptibility conferred by variant” value in test [2] is given as 1400 fold; in test [3] it was 1800 fold. Moreover, the “fold loss in susceptibility conferred by variant” value in test [4] (A156G alone) amounted to 1500 fold; in test [4] (Q168R co-selected with Y56H) it was 1100 fold. Further, the resistant colonies selected entry in test [4] (concentrations ≧100-fold over its EC50 value) was “very few colonies”.
